Experimental data from the Kinase Knowledgebase extract (Sharma et al. 2016).

Target: EGFR (human) (UniProt P00533)
Conditions: mda-mb-231

EGFR (human), sequence (P00533 whole entry, looked up): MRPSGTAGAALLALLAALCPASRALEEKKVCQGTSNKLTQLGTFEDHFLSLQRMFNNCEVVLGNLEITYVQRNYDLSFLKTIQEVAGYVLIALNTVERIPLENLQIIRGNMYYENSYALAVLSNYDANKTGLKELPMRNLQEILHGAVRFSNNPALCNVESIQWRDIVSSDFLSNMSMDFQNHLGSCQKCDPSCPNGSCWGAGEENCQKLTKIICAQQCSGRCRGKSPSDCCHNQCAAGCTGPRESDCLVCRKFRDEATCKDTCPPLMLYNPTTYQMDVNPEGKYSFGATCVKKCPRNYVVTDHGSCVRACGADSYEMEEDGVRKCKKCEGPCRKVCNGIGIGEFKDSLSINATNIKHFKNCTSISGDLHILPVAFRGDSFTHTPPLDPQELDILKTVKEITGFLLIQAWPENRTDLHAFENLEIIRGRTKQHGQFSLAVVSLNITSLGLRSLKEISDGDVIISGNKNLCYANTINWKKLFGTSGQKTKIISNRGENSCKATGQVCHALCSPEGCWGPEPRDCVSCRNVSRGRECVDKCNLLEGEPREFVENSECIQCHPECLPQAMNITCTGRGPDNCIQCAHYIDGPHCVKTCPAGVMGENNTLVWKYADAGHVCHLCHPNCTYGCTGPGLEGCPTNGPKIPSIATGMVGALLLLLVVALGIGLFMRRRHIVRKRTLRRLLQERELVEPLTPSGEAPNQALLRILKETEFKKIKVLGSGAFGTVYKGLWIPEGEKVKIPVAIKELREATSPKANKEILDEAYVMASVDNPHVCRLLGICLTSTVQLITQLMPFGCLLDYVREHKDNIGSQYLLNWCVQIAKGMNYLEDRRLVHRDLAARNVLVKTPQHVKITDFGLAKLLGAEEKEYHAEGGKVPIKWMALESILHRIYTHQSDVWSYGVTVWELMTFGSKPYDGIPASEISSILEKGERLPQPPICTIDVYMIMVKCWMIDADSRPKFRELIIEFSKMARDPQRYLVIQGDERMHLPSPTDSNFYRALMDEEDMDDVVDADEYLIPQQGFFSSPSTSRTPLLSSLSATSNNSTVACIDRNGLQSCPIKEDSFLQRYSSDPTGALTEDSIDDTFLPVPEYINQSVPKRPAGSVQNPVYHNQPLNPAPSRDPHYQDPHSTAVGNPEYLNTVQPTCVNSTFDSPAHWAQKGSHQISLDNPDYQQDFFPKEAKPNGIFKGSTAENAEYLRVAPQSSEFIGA

IC50	Compound
28.4 µM	C/C(O)=C(/C#N)C(=O)Nc1ccc(OC(F)(F)F)cc1
97 µM	Cc1oncc1C(=O)Nc1ccc(C(F)(F)F)cc1
